What was measured:
[1] = system: human renal cancer cells ACHN; assay: XTT cell proliferation assay, ACHN; format: cell-based; conditions: 5 days incubation, read-out: Antiproliferative activity, Kidney ACHN
Method: (§1) Exemplary compounds 1-8 were tested for anti-cancer activity in vitro using human renal cancer cells (ACHN and CAK-1), human pancreatic cells (BXPC3 and SU-86-86), human prostate cancer cell (DU14), human colon carcinoma cells (HT-29 and KM-12), leukemia cells (HL60), brain cancer/tumour cells (SK-A-AS, U87-MG), and human non-small cell lung cancer cells (H460). Compounds 1-8 are the specific embodiments of Formula (I) and Formula (IV) as described above in this application.
(§2) The cells were maintained as a monolayer in a growth medium; McCoy's 5A modified medium (Sigma, St. Louis, Mo.), supplemented with 2 mM L-glutamine (Gibco, Grand Island, N.Y.), 10% fetal bovine serum (FBS) (Multicell, WISENT Inc. St-Bruno, QC), antibiotic-antimycotic (Multicell), at 37° C. in a 5% CO2-humidified incubator. Cells were transferred onto 150 mm tissue culture plates and grown until sub-confluency (70-80%) prior to their use. The in vitro antiproliferative activity of compounds was evaluated by incubating the cells with varying concentrations of exemplary compounds as shown in Table 1 for 5 days. The efficacy of these compounds in this cell proliferation assay was measured based in the ability of live cells to reduce the tetrazolium salt XTT to orange colored compounds of formazan (XTT cell proliferation kit IT, Roche Applied Science, Montreal, QC).

[2] = system: brain cancer/tumour cells SK-N-AS; assay: XTT cell proliferation assay, SK-N-AS; format: cell-based, human; conditions: 5 days incubation, read-out: Antiproliferative activity, Brain SK-N-AS
Method: as §1, §2

[3] = system: non-small cell lung cancer cells EKVX; assay: XTT cell proliferation assay, EKVX; format: cell-based, human; conditions: 5 days incubation, read-out: Antiproliferative activity, NSCLC EKVX
Method: [The procedure below names another cell line; the source lists this cell line under the same test.] as §1, §2

[4] = system: renal cell carcinoma (ACHN); assay: Renal cell carcinoma (ACHN) xenograft model; format: in vivo, CD-1 female nude mice; conditions: vs vehicle-treated control, FIG. 4
Method: (§3) The ability of compound 1 to inhibit colon tumour growth in vivo was tested as follows. CD-1 female nude mice (7 mice per treatment group, 6-7 weeks) were injected […] with human colon adenocarcinoma cells HT-29 cells (3×10^6 cells in 0.1 ml PBS). Treatment of the mice with vehicle or 50 mg/kg/d of […] was initiated 5 days post-inoculation (size of tumours=20-40 mm^3) for 7-day cycles of five days followed by a 2 day break for 5 weeks. The size of the tumours was measured over the course of the experiment using calipers, and the weight of the tumours was measured after the animals were sacrificed.
(§4) The ability of compound 1 to inhibit renal cell carcinoma growth (see FIG. 4), to inhibit pancreatic carcinoma growth (FIG. 5), to inhibit large-cell lung carcinoma cell growth (FIG. 6), and to inhibit Glioblastoma cell growth (FIG. 7) was also tested following the general procedure as discussed above.

[5] = system: pancreatic cancer (BxPC-3); assay: Pancreatic cancer (BxPC-3) xenograft model; format: in vivo, CD-1 female nude mice; conditions: pancreatic carcinoma BxPC-3; vs vehicle-treated control; FIG. 5
Method: as §3, §4

Glioblastoma (U87-MG) = Glioblastoma (U87-MG) xenograft model; format: in vivo, CD-1 female nude mice; conditions: vs vehicle-treated control, FIG. 7
Method: as §3, §4

FC1(F)Oc2ccc(-c3nc4c5cccnc5c5ncccc5c4[nH]3)cc2O1 [Compound 1]
IC50 [1]: 170 nM
IC50 [2]: 210 nM
IC50 [3]: 220 nM
inhibition of tumour growth, as measured by tumour size [4]: able to inhibit tumour growth
inhibition of tumour growth, as measured by tumour size [5]: able to inhibit tumour growth
inhibition of tumour growth, as measured by tumour size (Glioblastoma (U87-MG)): able to inhibit tumour growth

— patent US9309247B2, “2-substituted imidazo[4,5-D]phenanthroline derivatives and their use in the treatment of cancer” (Aptose Biosciences Inc., priority 2013, dated 2016)
